# US12660819B2, “Herbicidal derivatives” (SYNGENTA CROP PROTECTION AG, priority 2020, dated 2026)
# Key:
# Type in all cases: in vivo
# [1] = system: Ipomoea hederacea (IPOHE); assay: Pre-emergence Test (glasshouse, percentage damage to the plant); conditions: 1000 g/ha unless otherwise stated, five-point scale
# [2] = system: Abutilon theophrasti (ABUTH); assay: as above; conditions: 1000 g/ha unless otherwise stated, five-point scale
# Zea mays (ZEAMX) [3] = assay: as above; conditions: 1000 g/ha unless otherwise stated, five-point scale
# Setaria faberi (SETFA) [4] = assay: as above; conditions: 1000 g/ha unless otherwise stated, five-point scale
# [5] = system: Amaranthus retoflexus (AMARE); assay: as above; conditions: 1000 g/ha unless otherwise stated, five-point scale
# [6] = system: Abutilon theophrasti (ABUTH); assay: Post-emergence Test (glasshouse, percentage damage to the plant); conditions: post-emergence spray, 1000 g/ha unless otherwise stated, evaluated after 13 days
# How it was run: (§1)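 Compound formulated in 50:50 acetone/water with 0.5% Tween 20 was diluted to an aqueous spray and applied at 1000 g/ha, unless otherwise stated, onto sown pots. Evaluation after 13 days gave percentage damage, banded into a 1–5 score.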
# [7] = system: Echinochloa crus-galli (ECHCG); assay: as above; conditions: post-emergence spray, 1000 g/ha unless otherwise stated, evaluated after 13 days
# How it was run: as §1
# [8] = system: Ipomoea hederacea (IPOHE); assay: as above; conditions: post-emergence spray, 1000 g/ha unless otherwise stated, evaluated after 13 days
# How it was run: (§2)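 Sown pots; spray 1000 g/ha (unless stated) in acetone/water 50:50 + 0.5% Tween 20; glasshouse 24/16 °C, 14 h light, 65% RH; watered twice daily; % damage read at 13 days, scored 1–5.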
# Setaria faberi (SETFA) [9] = assay: as above; conditions: post-emergence spray, 1000 g/ha unless otherwise stated, evaluated after 13 days
# How it was run: as §2
# Zea mays (ZEAMX) [10] = assay: as above; conditions: post-emergence spray, 1000 g/ha unless otherwise stated, evaluated after 13 days
# How it was run: as §2
# [11] = system: Amaranthus retoflexus (AMARE); assay: as above; conditions: post-emergence spray, 1000 g/ha unless otherwise stated, evaluated after 13 days
# How it was run: as §1
# [12] = system: Echinochloa crus-galli (ECHCG); assay: Pre-emergence Test (glasshouse, percentage damage to the plant); conditions: 1000 g/ha unless otherwise stated, five-point scale
SMILES,"percentage damage to the plant, IPOHE [1]","percentage damage to the plant, ABUTH [2]","percentage damage to the plant, ZEAMX (Zea mays (ZEAMX) [3])","percentage damage to the plant, SETFA (Setaria faberi (SETFA) [4])","percentage damage to the plant, AMARE [5]","Post-emergence Test ABUTH, percentage damage to the plant (five-point scale) [6]","Post-emergence Test ECHCG, percentage damage to the plant (five-point scale) [7]","Post-emergence Test IPOHE, percentage damage to the plant (five-point scale) [8]","Post-emergence Test SETFA, percentage damage to the plant (five-point scale) (Setaria faberi (SETFA) [9])","Post-emergence Test ZEAMX, percentage damage to the plant (five-point scale) (Zea mays (ZEAMX) [10])","Post-emergence Test AMARE, percentage damage to the plant (five-point scale) [11]","percentage damage to the plant, ECHCG [12]"
"CCn1c(C)c(-c2cnccn2)c(=O)c(C(=O)O)c1-c1ccc(Cl)cn1 [Compound 168, 2-(5-chloro-2-pyridyl)-1-ethyl-6-methyl-4-oxo-5-pyrazin-2-yl-pyridine-3-carboxylic acid]",0,0,0,0,0,0,0,0,0,0,0,0
"CCOc1cc(-c2c(C)n(CC)c(-c3ccc(Cl)c(Cl)c3)c(C(=O)O)c2=O)cc(C(F)(F)F)c1 [Compound 88, 2-(3,4-dichlorophenyl)-5-[3-ethoxy-5-(trifluoromethyl)phenyl]-1-ethyl-6-methyl-4-oxo-pyridine-3-carboxylic acid]",1 (1=0-20%),1 (1=0-20%),1 (1=0-20%),4 (4=61-80%),1 (1=0-20%),2 (2=21-40%),2 (2=21-40%),1 (1=0-20%),2 (2=21-40%),1 (1=0-20%),2 (2=21-40%),1 (1=0-20%)
"CCn1c(C)c(-c2ccc(F)c(C#N)c2)c(=O)c(C(=O)O)c1-c1ccc(Cl)c(Cl)c1 [Compound 91, 5-(3-cyano-4-fluoro-phenyl)-2-(3,4-dichlorophenyl)-1-ethyl-6-methyl-4-oxo-pyridine-3-carboxylic acid]",3 (3=41-60%),2 (2=21-40%),1 (1=0-20%),4 (4=61-80%),2 (2=21-40%),3 (3=41-60%),4 (4=61-80%),3 (3=41-60%),4 (4=61-80%),2 (2=21-40%),3 (3=41-60%),4 (4=61-80%)
"CCn1c(C)c(-c2ccc(F)c(C#N)c2)c(=O)c(C(=O)O)c1-c1ccc(Cl)c(Cl)c1 [Compound 92, 5-(3-cyano-4-fluoro-phenyl)-2-(3,4-dichlorophenyl)-1-ethyl-6-methyl-4-oxo-pyridine-3-carboxylic acid]",1 (1=0-20%),1 (1=0-20%),1 (1=0-20%),1 (1=0-20%),1 (1=0-20%),2 (2=21-40%),1 (1=0-20%),3 (3=41-60%),1 (1=0-20%),1 (1=0-20%),1 (1=0-20%),1 (1=0-20%)
"CCn1c(C)c(-c2ccc(Cl)cc2)c(=O)c(C(=O)O)c1-c1ccc(F)c(F)c1 [Compound 128, 5-(4-chlorophenyl)-2-(3,4-difluorophenyl)-1-ethyl-6-methyl-4-oxo-pyridine-3-carboxylic acid]",1 (1=0-20%),3 (3=41-60%),2 (2=21-40%),5 (5=81-100%),4 (4=61-80%),4 (4=61-80%),3 (3=41-60%),2 (2=21-40%),4 (4=61-80%),3 (3=41-60%),3 (3=41-60%),2 (2=21-40%)
"CCn1c(C)c(-c2ccc(F)cc2C)c(=O)c(C(=O)O)c1-c1ccc(Cl)c(Cl)c1 [Compound 155, 2-(3,4-dichlorophenyl)-1-ethyl-5-(4-fluoro-2-methyl-phenyl)-6-methyl-4-oxo-pyridine-3-carboxylic acid]",1 (1=0-20%),2 (2=21-40%),1 (1=0-20%),5 (5=81-100%),1 (1=0-20%),4 (4=61-80%),4 (4=61-80%),4 (4=61-80%),4 (4=61-80%),4 (4=61-80%),3 (3=41-60%),5 (5=81-100%)
"CCn1c(C)c(-c2ccc(F)cc2OC)c(=O)c(C(=O)O)c1-c1ccc(Cl)c(Cl)c1 [Compound 157, 2-(3,4-dichlorophenyl)-1-ethyl-5-(4-fluoro-2-methoxy-phenyl)-6-methyl-4-oxo-pyridine-3-carboxylic acid]",2 (2=21-40%),4 (4=61-80%),3 (3=41-60%),5 (5=81-100%),0,4 (4=61-80%),4 (4=61-80%),4 (4=61-80%),4 (4=61-80%),4 (4=61-80%),1 (1=0-20%),4 (4=61-80%)
"CCn1c(C)c(-c2cc(F)c(F)c(F)c2)c(=O)c(C(=O)O)c1-c1ccc(Cl)c(Cl)c1 [Compound 73, 2-(3,4-dichlorophenyl)-1-ethyl-6-methyl-4-oxo-5-(3,4,5-trifluorophenyl)pyridine-3-carboxylic acid]",2 (2=21-40%),2 (2=21-40%),1 (1=0-20%),4 (4=61-80%),1 (1=0-20%),3 (3=41-60%),3 (3=41-60%),3 (3=41-60%),4 (4=61-80%),2 (2=21-40%),2 (2=21-40%),2 (2=21-40%)
"CCn1c(C)c(-c2ccc(Cl)c(C#N)c2)c(=O)c(C(=O)O)c1-c1ccc(Cl)c(Cl)c1 [Compound 57, 5-(4-chloro-3-cyano-phenyl)-2-(3,4-dichlorophenyl)-1-ethyl-6-methyl-4-oxo-pyridine-3-carboxylic acid]",2 (2=21-40%),1 (1=0-20%),2 (2=21-40%),4 (4=61-80%),3 (3=41-60%),3 (3=41-60%),3 (3=41-60%),2 (2=21-40%),4 (4=61-80%),2 (2=21-40%),4 (4=61-80%),3 (3=41-60%)
"CCn1c(C)c(-c2ccc(C(C)=O)cc2)c(=O)c(C(=O)O)c1-c1ccc(Cl)c(Cl)c1 [Compound 90, 5-(4-acetylphenyl)-2-(3,4-dichlorophenyl)-1-ethyl-6-methyl-4-oxo-pyridine-3-carboxylic acid]",1 (1=0-20%),1 (1=0-20%),1 (1=0-20%),3 (3=41-60%),1 (1=0-20%),1 (1=0-20%),1 (1=0-20%),2 (2=21-40%),2 (2=21-40%),1 (1=0-20%),1 (1=0-20%),1 (1=0-20%)
